Several values for one entry are separate records, joined by “and”; a condition that tells them apart may be missing. Identical values can stand only once. Like-named read-outs stand apart in the source and are kept apart here.
How the values were obtained:
mMC3R [1] = target: T1, mMC3R (Mus musculus, UniProt P33033); assay: AlphaScreen cAMP agonist assay, HEK293 cells stably expressing mMC3R; settings: for mMC3R agonist efficacy (in words): relative to NDP-MSH, full = >90% receptor activation; for mMC3R partial agonist efficacy bin: sigmoidal curve, efficacy <90% of NDP-MSH
T1 sequence (P33033 whole entry): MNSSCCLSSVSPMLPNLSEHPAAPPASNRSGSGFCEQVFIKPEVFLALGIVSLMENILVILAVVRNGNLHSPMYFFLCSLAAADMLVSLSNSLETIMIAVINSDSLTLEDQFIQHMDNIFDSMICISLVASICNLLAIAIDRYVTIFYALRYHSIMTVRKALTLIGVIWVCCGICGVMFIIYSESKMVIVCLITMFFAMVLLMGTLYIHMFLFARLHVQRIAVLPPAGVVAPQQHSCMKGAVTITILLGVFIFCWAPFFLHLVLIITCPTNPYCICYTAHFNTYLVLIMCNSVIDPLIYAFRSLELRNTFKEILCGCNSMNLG
Experimental: (§1) Pyrrolidine bis-cyclic guanidine compounds were assessed for biological activity using the AlphaScreen cAMP kit with HEK293 cells stably expressing the mMC1R, mMC3R, mMC4R, or mMC5R, as previously described [37, 38, 39]. […] Compounds were assayed for agonist activity in a 7-point dose–response curve (10^−3 to 10^−9 M). […] The purified compounds were dissolved in DMSO at a stock concentration of 10^−1 M and assayed using HEK293 cells stably expressing the mouse MC1R, MC3R, MC4R, and MC5R using the AlphaScreen cAMP bioassay (PerkinElmer, Waltham, MA, USA) according to the manufacturer’s instructions and as previously described [37, 38, 39].
(§2) Briefly, cells 70−90% confluent were dislodged with Versene (Gibco, Waltham, MA, USA) at 37 °C and 10,000 cells/well were plated in a 384-well plate (Optiplate, PerkinElmer, Waltham, MA, USA) with 10 μL of freshly prepared stimulation buffer (1× HBSS, 5 mM HEPES, 0.5 mM IBMX, 0.1% BSA, pH = 7.4) with 0.5 μg of anti-cAMP acceptor beads per well. The cells were stimulated with the addition of 5 μL of stimulation buffer containing compound or forskolin (10^−4 M) and incubated in the dark at room temperature for 2 h. Following stimulation, streptavidin donor beads (0.5 μg) and biotinylated cAMP (0.62 μmol) were added to the wells in a green light environment with 10 μL of lysis buffer (5 mM HEPES, 0.3% Tween-20, 0.1% BSA, pH = 7.4) and the plates were incubated in the dark at room temperature for an additional 2 h. Plates were read on a Enspire (PerkinElmer, Waltham, MA, USA) Alpha plate reader using a pre-normalized assay protocol (set by the manufacturer).

mMC4R [2] = target: T2, mMC4R (Mus musculus, UniProt P56450); assay: cell-based
T2 sequence (P56450 whole entry): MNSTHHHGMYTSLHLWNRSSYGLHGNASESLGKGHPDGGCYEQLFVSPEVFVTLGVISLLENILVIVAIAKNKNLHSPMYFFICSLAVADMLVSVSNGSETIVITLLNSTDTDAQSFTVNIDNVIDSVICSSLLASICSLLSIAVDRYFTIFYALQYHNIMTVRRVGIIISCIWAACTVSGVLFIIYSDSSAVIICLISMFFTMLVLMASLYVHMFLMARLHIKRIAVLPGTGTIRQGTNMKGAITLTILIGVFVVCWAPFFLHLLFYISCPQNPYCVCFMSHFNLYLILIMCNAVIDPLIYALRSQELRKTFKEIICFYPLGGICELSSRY
Experimental: as §1, §2

mMC5R [3] = target: T3, mMC5R (Mus musculus, UniProt P41149); assay: AlphaScreen cAMP agonist assay, HEK293 cells stably expressing mMC5R; settings: for mMC5R partial agonist efficacy bin: sigmoidal curve, efficacy <90% of NDP-MSH; for mMC5R agonist efficacy (in words): relative to NDP-MSH, full = >90% receptor activation
T3 sequence (P41149 whole entry): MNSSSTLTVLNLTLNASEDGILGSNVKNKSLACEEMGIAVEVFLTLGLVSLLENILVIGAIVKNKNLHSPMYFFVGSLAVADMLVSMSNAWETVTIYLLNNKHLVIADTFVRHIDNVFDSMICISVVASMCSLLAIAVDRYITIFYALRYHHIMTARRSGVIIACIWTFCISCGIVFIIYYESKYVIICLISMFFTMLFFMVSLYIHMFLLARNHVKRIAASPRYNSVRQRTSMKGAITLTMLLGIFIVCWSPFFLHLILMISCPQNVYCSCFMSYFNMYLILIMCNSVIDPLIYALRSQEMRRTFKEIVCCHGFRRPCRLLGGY
Experimental: as §1, §2

mMC4R [4] = target: T2, mMC4R; assay: AlphaScreen cAMP agonist assay, HEK293 cells stably expressing mMC4R; settings: for mMC4R partial agonist efficacy bin: sigmoidal curve, efficacy <90% of NDP-MSH
mMC1R [5] = target: T4, mMC1R (Mus musculus, UniProt Q01727); assay: AlphaScreen cAMP agonist assay, HEK293 cells stably expressing mMC1R; settings: for mMC1R partial agonist efficacy bin: sigmoidal curve, efficacy <90% of NDP-MSH
T4 sequence (Q01727 whole entry): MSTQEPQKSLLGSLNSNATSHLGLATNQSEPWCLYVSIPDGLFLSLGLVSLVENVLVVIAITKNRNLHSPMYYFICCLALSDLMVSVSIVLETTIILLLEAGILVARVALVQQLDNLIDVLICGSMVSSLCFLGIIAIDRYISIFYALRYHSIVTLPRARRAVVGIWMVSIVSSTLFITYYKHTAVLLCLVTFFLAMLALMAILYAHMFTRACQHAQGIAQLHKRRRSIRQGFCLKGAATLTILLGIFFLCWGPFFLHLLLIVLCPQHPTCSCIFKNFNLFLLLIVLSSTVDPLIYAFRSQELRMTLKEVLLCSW
Experimental: as §1, §2

mMC4R [6] = target: T2, mMC4R; settings: antagonist, Schild analysis with agonist NDP-MSH; mean ± SEM
Experimental: as §1, §2

mMC4R [7] = target: T2, mMC4R; parameters: expressed in transfected cells; method as in PMID 33886285; settings: with agonist MTII; cited from earlier work
mMC5R [8] = target: T3, mMC5R; parameters: expressed in transfected cells; method as in PMID 33886285; settings: β-galactosidase reporter gene assay; read-out: mMC5R agonist EC50 (previously reported); cited from earlier work
mMC4R [9] = target: T2, mMC4R; parameters: expressed in transfected cells; method as in PMID 33886285; settings: at 10 µM; cited from earlier work
mMC1R [10] = target: T4, mMC1R; parameters: expressed in transfected cells; method as in PMID 33886285; settings: at 10 µM; cited from earlier work
mMC3R [11] = target: T1, mMC3R; parameters: expressed in transfected cells; method as in PMID 33886285; settings: β-galactosidase reporter gene assay; read-out: mMC3R agonist EC50 (previously reported); cited from earlier work
[12] = at 1 mM, not enough stimulation to determine EC50

SMILES | EC50 (mMC3R [1]) [nM] | mMC3R agonist efficacy (in words) (mMC3R [1]) | Kb (mMC4R [2]) [nM] | EC50 (mMC5R [3]) [nM] | EC50 (mMC1R [5]) [nM] | mMC4R pA2 (mMC4R [6]) | mMC4R percent maximal stimulatory response (compared to NDP-MSH) (mMC4R [4]; [12]) [% @ 1 mM] | further results
C[C@H](O)[C@@H]1CN([C@H](CC2CCCCC2)CN2CCC[C@H]2CN2CCNC2=N)C(=N)N1CC1CCC(C(C)(C)C)CC1 (stereo partly shown) [Compound 2718.026] | 2600 ± 200 | full agonist efficacy | 631 | 300 ± 10 | 460 ± 30 | 6.2 | – | fold decreased mMC3R agonist potency (mMC3R [1]; relative to 2718.002): 11 fold and 10 fold; EC50 (mMC4R [4]): 1800 ± 500 nM; mMC4R partial agonist efficacy bin (mMC4R [4]): A (A (20–50% receptor activation))
CCC[C@@H]1CN([C@H](CC2CCCCC2)CN2CCC[C@H]2CN2CCNC2=N)C(=N)N1CC1CCC(C(C)(C)C)CC1 (stereo partly shown) [Compound 2718.029] | 3300 ± 100 | full agonist efficacy | 1580 | 1300 ± 100 | 1100 ± 300 | 5.8 | – | EC50 (mMC4R [4]): 2900 ± 400 nM; mMC4R partial agonist efficacy bin (mMC4R [4]): B (B (51–90% receptor activation))
CC(C)C[C@@H]1CNC(=N)N1C[C@@H]1CCCN1C[C@@H](Cc1ccccc1)N1CCN(CC2CCC(C(C)(C)C)CC2)C1=N (stereo partly shown) [Compound 2718.022] | 380 ± 70 | full agonist efficacy | 794 | 320 ± 10 | 400 ± 40 | 6.1 | – | –
CCC[C@@H]1CN([C@H](CC2CCCCC2)CN2CCC[C@H]2CN2C(=N)NC[C@@H]2C(C)C)C(=N)N1CC1CCC(C(C)(C)C)CC1 (stereo partly shown) [Compound 2718.053] | 2400 ± 200 | full agonist efficacy | 1260 | 2400 ± 300 | 1000 ± 300 | – | 60 | –
CC(C)[C@@H]1CNC(=N)N1C[C@@H]1CCCN1C[C@@H](CC1CCCCC1)N1CCN(CC2CCC(C(C)(C)C)CC2)C1=N (stereo partly shown) [Compound 2718.027] | 2100 ± 200 | full agonist efficacy | 631 | 510 ± 70 | 340 ± 30 | – | 45 | –
C[C@H](O)[C@@H]1CN([C@H](Cc2ccccc2)CN2CCC[C@H]2CN2CCNC2=N)C(=N)N1CC1CCC(C(C)(C)C)CC1 (stereo partly shown) [Compound 2718.024] | 3000 ± 700 | full agonist efficacy | 501 | 480 ± 50 | 390 ± 50 | 6.3 | 50 | fold decreased mMC3R agonist potency (mMC3R [1]; relative to 2718.001): 11 fold and 10 fold
CC(C)C[C@H]1CNC(=N)N1C[C@H]1CCCN1C[C@H](Cc1ccccc1)N1C[C@@H]([C@H](C)O)N(CC2CCC(C(C)(C)C)CC2)C1=N (stereo partly shown) [Compound 2718.044] | 5600 ± 800 | – | – | 2900 ± 900 | 7000 ± 2000 | – | 50 | mMC3R partial agonist efficacy bin (mMC3R [1]): A (A (20–50% receptor activation)); mMC5R partial agonist efficacy bin (mMC5R [3]): B (B (51–90% receptor activation)); mMC1R partial agonist efficacy bin (mMC1R [5]): B (B (51–90% receptor activation))
CC(C)C[C@H]1CNC(=N)N1C[C@H]1CCCN1C[C@H](Cc1ccccc1)N1C[C@H]([C@@H](C)O)N(CC2CCC(C(C)(C)C)CC2)C1=N (stereo partly shown) [Compound 2718.034] | – | – | – | 3000 ± 1000 | – | – | 55 | mMC3R percent maximal stimulatory response (compared to NDP-MSH) (mMC3R [1]; [12]): 50% @ 1 mM; fold decreased mMC5R agonist potency (mMC5R [3]; relative to 2718.001): 12 fold; mMC1R percent maximal stimulatory response (compared to NDP-MSH) (mMC1R [5]; [12]): 75% @ 1 mM
CCC[C@H]1CN([C@H](CC2CCCCC2)CN2CCC[C@H]2CN2C(=N)NC[C@H]2C(C)C)C(=N)N1CC1CCC(C(C)(C)C)CC1 (stereo partly shown) [Compound 2718.050] | 27000 | – | – | 4200 ± 500 | 3200 ± 500 | – | – | mMC3R partial agonist efficacy bin (mMC3R [1]): B (B (51–90% receptor activation)); EC50 (mMC4R [4]): 39000 nM; mMC4R partial agonist efficacy bin (mMC4R [4]): B (B (51–90% receptor activation)); fold decreased mMC1R agonist potency (mMC1R [5]; relative to 2718.003): 5 fold
CC(C)C[C@@H]1CNC(=N)N1C[C@@H]1CCCN1C[C@H](Cc1ccccc1)N1C[C@@H]([C@H](C)O)N(CC2CCC(C(C)(C)C)CC2)C1=N (stereo partly shown) [Compound 2718.031] | – | – | – | – | 2300 ± 900 | – | 55 | mMC3R percent maximal stimulatory response (compared to NDP-MSH) (mMC3R [1]; [12]): 55% @ 1 mM; mMC5R percent maximal stimulatory response (compared to NDP-MSH) (mMC5R [3]; [12]): 70% @ 1 mM; fold decreased mMC1R agonist potency (mMC1R [5]; relative to 2718.001): 7 fold
CC(C)CC1CNC(=N)N1CC1CCCN1CC(Cc1ccccc1)N1CC(C(C)O)N(CC2CCC(C(C)(C)C)CC2)C1=N (stereo not shown) [Compound 2718.001] | 270 ± 20 | – | 1000 | 260 ± 30 | 320 ± 30 | 6.0 | – | mMC4R antagonist pA2 (previously reported) (mMC4R [7]): 7.0; EC50 (mMC5R [8]): 530 nM; mMC4R partial stimulation, % activation (previously reported) (mMC4R [9]): 10–50%; mMC1R partial stimulation, % efficacy (previously reported) (mMC1R [10]): 58%; EC50 (mMC3R [11]): 310 nM
CC(C)C[C@H]1CNC(=N)N1C[C@@H]1CCCN1C[C@H](Cc1ccccc1)N1C[C@@H]([C@H](C)O)N(CC2CCC(C(C)(C)C)CC2)C1=N (stereo partly shown) [Compound 2718.039] | – | – | – | 45000 | 4000 ± 2000 | – | 55 | mMC3R percent maximal stimulatory response (compared to NDP-MSH) (mMC3R [1]; [12]): 50% @ 1 mM; mMC5R partial agonist efficacy bin (mMC5R [3]): B (B (51–90% receptor activation)); mMC1R partial agonist efficacy bin (mMC1R [5]): B (B (51–90% receptor activation))
CCCCC1CNC(=N)N1CC1CCC(C(C)(C)C)CC1 (stereo not shown) [Compound 2718.021] | – | – | – | – | – | – | – | mMC3R percent maximal stimulatory response (compared to NDP-MSH) (mMC3R [1]; at 100 µM): 50% @ 100 µM; EC50 (mMC5R [3]; read-out: mMC5R EC50, agonist, mean ± SEM, at least three independent experiments, >1,000,000 = no agonist activity up to 1 mM): 17000 nM; fold decreased mMC5R agonist potency (mMC5R [3]; relative to 2718.003): 14 fold; mMC5R agonist efficacy (in words) (mMC5R [3]): fully activate; mMC4R percent maximal stimulatory response (compared to NDP-MSH) (mMC4R [4]; at 100 µM): 50% @ 100 µM; mMC1R percent maximal stimulatory response (compared to NDP-MSH) (mMC1R [5]; at 100 µM): 80% @ 100 µM
CC(O)C1CNC(=N)N1CC1CCC(C(C)(C)C)CC1 (stereo not shown) [Compound 2718.020] | – | – | – | 140000 | – | – | 55 | mMC3R percent maximal stimulatory response (compared to NDP-MSH) (mMC3R [1]; [12]): 70% @ 1 mM; mMC5R agonist efficacy (in words) (mMC5R [3]): fully activate; mMC1R percent maximal stimulatory response (compared to NDP-MSH) (mMC1R [5]; [12]): 70% @ 1 mM
CCCCC(CN1CCCC1CN1C(=N)NCC1CC(C)C)N1CC(C(C)O)N(CC2CCC(C(C)(C)C)CC2)C1=N (stereo not shown) [Compound 2718.060] | 2200 ± 200 | – | – | 1100 ± 300 | 2200 ± 700 | – | 45 | mMC3R partial agonist efficacy bin (mMC3R [1]): B (B (51–90% receptor activation)); fold decreased mMC5R agonist potency (mMC5R [3]; relative to 2718.002): 4 fold; mMC1R partial agonist efficacy bin (mMC1R [5]): B (B (51–90% receptor activation))
CC(C)C[C@@H]1CNC(=N)N1C[C@@H]1CCCN1C[C@@H](CC1CCCCC1)N1CCN(CC2CCC(C(C)(C)C)CC2)C1=N (stereo partly shown) [Compound 2718.025] | 1000 ± 300 | full agonist efficacy | 794 | 600 ± 100 | 510 ± 90 | 6.1 | 60 | fold decreased mMC3R agonist potency (mMC3R [1]; relative to 2718.002): 4 fold

From PMC10299128, “The Parallel Structure–Activity Relationship Screening of Three Compounds Identifies the Common Agonist Pharmacophore of Pyrrolidine Bis-Cyclic Guanidine Melanocortin-3 Receptor (MC3R) Small-Molecule Ligands” (International Journal of Molecular Sciences, 2023)
